Results on 37 compounds are retold here after patent publication US8865756B2, “Inhibitors of HCV NS5A” (Presidio Pharmaceuticals, Inc., priority 2008, dated 2014).

The assay relates to HCV 1b_Huh-Luc/Neo-ET cell line persistently expressing a bicistronic genotype 1b replicon in Huh 7 cells. As to the kind of experiment: HCV replicon assay (luciferase readout). The assay is classed as cell-based. Conditions: Hepatitis C virus, Huh-7, 72 h, read-out: Inhibition of HCV genotype 1b. The procedure, abridged: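 Huh 7 cells carrying a genotype 1b luciferase/neo replicon treated in triplicate for 72 h, then luciferase activity measured. Signal expressed as % of control; EC50 from four-parameter logistic fit, determined several times.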
(Replicon systems follow genome replication, usually without infectious particles.)
On to `COC(=O)N[C@@H](C(=O)N1CCC[C@H]1c1ncc(-c2ccc(C#Cc3ccc(C(=O)NC[C@@H]4CCCN4C(=O)[C@H](NC(=O)N4CCN(C)CC4)c4ccccc4)cc3)cc2)[nH]1)c1ccccc1` [Compound 236], for which the EC50 is under 1 nM.

Turning to `O=C(N[C@@H](C(=O)N1CCC[C@H]1c1ncc(-c2ccc(C#Cc3ccc(-c4cnc([C@@H]5CCCN5C(=O)[C@@H](c5ccccc5)N5CCOCC5)[nH]4)cc3)cc2)[nH]1)c1ccccc1)C1CC1` [Compound 237], the EC50 is under 1 nM.

In the case of `CN1CCN(C(=O)N[C@@H](C(=O)N2CCC[C@H]2c2ncc(-c3ccc(C#Cc4ccc(-c5cnc([C@@H]6CCCN6C(=O)[C@H](NC(=O)C6CC6)c6ccccc6)[nH]5)cc4)cc3)[nH]2)c2ccccc2)CC1` [Compound 238], the EC50 is under 1 nM. The figure for `COC(=O)N[C@@H](C(=O)N1CCC[C@H]1c1ncc(-c2ccc(C#Cc3ccc(-c4cnc([C@@H]5CCCN5C(=O)[C@H](NC(=O)N5CCN(C)CC5)c5ccccc5)[nH]4)cc3)cc2)[nH]1)c1ccccc1` [Compound 240] is under 1 nM. The value for `COC(=O)N[C@@H](C(=O)N1CCC[C@H]1c1ncc(-c2ccc(C#Cc3ccc(-c4cnc([C@@H]5CCCN5C(=O)[C@H](NC(=O)N5CCC(O)CC5)c5ccccc5)[nH]4)cc3)cc2)[nH]1)c1ccccc1` [Compound 241] was under 1 nM; that for `COC(=O)N[C@@H](C(=O)N1CCC[C@H]1c1ncc(-c2ccc(C#Cc3ccc(-c4cnc([C@@H]5CCCN5C(=O)[C@H](NC(=O)N5CCCCC5)c5ccccc5)[nH]4)cc3)cc2)[nH]1)c1ccccc1` [Compound 242] was under 1 nM. The value for `COC(=O)N[C@@H](C(=O)N1CCC[C@H]1c1ncc(-c2ccc(C#Cc3ccc(-c4cnc([C@@H]5CCCN5C(=O)[C@H](NC(=O)N5CCCC5)c5ccccc5)[nH]4)cc3)cc2)[nH]1)c1ccccc1` [Compound 243] was under 1 nM; that for `CCOC(=O)N[C@@H](C(=O)N1CCC[C@H]1c1ncc(-c2ccc(C#Cc3ccc(-c4cnc([C@@H]5CCCN5C(=O)[C@H](NC(=O)OCC)c5ccccc5)[nH]4)cc3)cc2)[nH]1)c1ccccc1` [Compound 244] was under 1 nM. For `O=C(N[C@@H](C(=O)N1CCC[C@H]1c1ncc(-c2ccc(C#Cc3ccc(-c4cnc([C@@H]5CCCN5C(=O)[C@H](NC(=O)N5CC[C@H](O)C5)c5ccccc5)[nH]4)cc3)cc2)[nH]1)c1ccccc1)N1CC[C@H](O)C1` [Compound 245], the EC50 was under 1 nM. The value for `CC(C)(C)OC(=O)N[C@@H](C(=O)N1CCC[C@H]1c1ncc(-c2ccc(C#Cc3ccc(-c4nnc([C@@H]5CCCN5C(=O)[C@H](NC(=O)OC(C)(C)C)c5ccccc5)[nH]4)cc3)cc2)[nH]1)c1ccccc1` [Compound 246] was under 1 nM.

In the case of `COC(=O)N[C@@H](C(=O)N1CCC[C@H]1c1ncc(-c2ccc(C#Cc3ccc(-c4nnc([C@@H]5CCCN5C(=O)[C@H](NC(=O)OC)c5ccccc5)[nH]4)cc3)cc2)[nH]1)c1ccccc1` [Compound 247], the EC50 is under 1 nM. For `O=C(N[C@@H](C(=O)N1CCC[C@H]1c1ncc(-c2ccc(C#Cc3ccc(-c4cnc([C@@H]5CCCN5C(=O)[C@H](NC(=O)N5CCOCC5)c5ccccc5)[nH]4)cc3)cc2)[nH]1)c1ccccc1)N1CCOCC1` [Compound 248], the EC50 is under 1 nM. For `O=C(N[C@@H](C(=O)N1CCC[C@H]1c1ncc(-c2ccc(C#Cc3ccc(-c4cnc([C@@H]5CCCN5C(=O)[C@H](NC(=O)N5CCCC5)c5ccccc5)[nH]4)cc3)cc2)[nH]1)c1ccccc1)N1CCCC1` [Compound 249], the EC50 is under 1 nM.

For `O=C(N[C@@H](C(=O)N1CCC[C@H]1c1ncc(-c2ccc(C#Cc3ccc(-c4cnc([C@@H]5CCCN5C(=O)[C@H](NC(=O)N5CCCCC5)c5ccccc5)[nH]4)cc3)cc2)[nH]1)c1ccccc1)N1CCCCC1` [Compound 250], the EC50 is under 1 nM. Consider `O=C(N[C@@H](C(=O)N1CCC[C@H]1c1ncc(-c2ccc(C#Cc3ccc(-c4cnc([C@@H]5CCCN5C(=O)[C@H](NC(=O)N5CCC(O)CC5)c5ccccc5)[nH]4)cc3)cc2)[nH]1)c1ccccc1)N1CCC(O)CC1` [Compound 251], for which the EC50 is under 1 nM. The value for `O=C(N[C@@H](C(=O)N1CCC[C@H]1c1ncc(-c2ccc(C#Cc3ccc(-c4cnc([C@@H]5CCCN5C(=O)[C@H](NC(=O)N5CC[C@@H](O)C5)c5ccccc5)[nH]4)cc3)cc2)[nH]1)c1ccccc1)N1CC[C@@H](O)C1` [Compound 252] was under 1 nM; that for `COC(=O)N[C@@H](C(=O)N1CCC[C@H]1c1ncc(-c2ccc(C#Cc3ccc(-c4cnc([C@@H]5CCCN5C(=O)[C@H](NC(=O)N5CCS(=O)(=O)CC5)c5ccccc5)[nH]4)cc3)cc2)[nH]1)c1ccccc1` [Compound 253] was under 1 nM. On to `COC(=O)N[C@@H](C(=O)N1CCC[C@H]1c1ncc(-c2ccc(C#Cc3ccc(-c4cnc([C@@H]5CCCN5C(=O)[C@H](NC(=O)N5CCC[C@@H]5CO)c5ccccc5)[nH]4)cc3)cc2)[nH]1)c1ccccc1` [Compound 254], for which the EC50 is under 1 nM. The value for `COC(=O)N[C@@H](C(=O)N1CCC[C@H]1c1ncc(-c2ccc(C#Cc3ccc(-c4cnc([C@@H]5CCCN5C(=O)[C@H](NC(=O)N5CCC[C@H]5CO)c5ccccc5)[nH]4)cc3)cc2)[nH]1)c1ccccc1` [Compound 255] was under 1 nM; that for `COC(=O)N[C@@H](C(=O)N1CCC[C@H]1c1ncc(-c2ccc(C#Cc3ccc(-c4cnc([C@@H]5CCCN5C(=O)[C@H](C)c5ccccc5)[nH]4)cc3)cc2)[nH]1)c1ccccc1` [Compound 256] was under 1 nM. The value for `COC(=O)N[C@@H](C(=O)N1CCC[C@H]1c1ncc(-c2ccc(C#Cc3ccc(-c4cnc([C@@H]5CCCN5C(=O)C5(c6ccccc6)CC5)[nH]4)cc3)cc2)[nH]1)c1ccccc1` [Compound 257] was under 1 nM; that for `CC[C@@H](C(=O)N1CCC[C@H]1c1ncc(-c2ccc(C#Cc3ccc(-c4cnc([C@@H]5CCCN5C(=O)[C@H](NC(=O)OC)c5ccccc5)[nH]4)cc3)cc2)[nH]1)c1ccccc1` [Compound 258] was under 1 nM; that for `COC[C@H]1CCCN1C(=O)N[C@@H](C(=O)N1CCC[C@H]1c1ncc(-c2ccc(C#Cc3ccc(-c4cnc([C@@H]5CCCN5C(=O)[C@H](NC(=O)OC)c5ccccc5)[nH]4)cc3)cc2)[nH]1)c1ccccc1` [Compound 259] was under 1 nM.

For `COC[C@@H]1CCCN1C(=O)N[C@@H](C(=O)N1CCC[C@H]1c1ncc(-c2ccc(C#Cc3ccc(-c4cnc([C@@H]5CCCN5C(=O)[C@H](NC(=O)OC)c5ccccc5)[nH]4)cc3)cc2)[nH]1)c1ccccc1` [Compound 260], the EC50 is under 1 nM. The value for `COC(=O)N[C@@H](C(=O)N1CCC[C@H]1c1ncc(-c2ccc(C#Cc3ccc(-c4cnc([C@@H]5CCCN5C(=O)[C@H](NC(=O)N5CCC[C@@H]5C)c5ccccc5)[nH]4)cc3)cc2)[nH]1)c1ccccc1` [Compound 261] was under 1 nM; that for `COC(=O)N[C@@H](C(=O)N1CCC[C@H]1c1ncc(-c2ccc(C#Cc3ccc(-c4cnc([C@@H]5CCCN5C(=O)[C@H](NC(=O)N5CCC[C@H]5C)c5ccccc5)[nH]4)cc3)cc2)[nH]1)c1ccccc1` [Compound 262] was under 1 nM. The value for `COC(=O)N[C@@H](C(=O)N1CCC[C@H]1c1ncc(-c2ccc(C#Cc3ccc(-c4cnc([C@@H]5CCCN5C(=O)[C@H](NC(=O)N5CCC[C@H](O)C5)c5ccccc5)[nH]4)cc3)cc2)[nH]1)c1ccccc1` [Compound 263] was under 1 nM; that for `COC(=O)N[C@@H](C(=O)N1CCC[C@H]1c1ncc(-c2ccc(C#Cc3ccc(-c4cnc([C@@H]5CCCN5C(=O)[C@H](NC(=O)N5CCC[C@@H](O)C5)c5ccccc5)[nH]4)cc3)cc2)[nH]1)c1ccccc1` [Compound 264] was under 1 nM.

Take `C[C@@H](c1ncc(-c2ccc(C#Cc3ccc(-c4cnc([C@@H]5CCCN5C(=O)[C@H](NC(=O)OC(C)(C)C)c5ccccc5)[nH]4)cc3)cc2)[nH]1)N(C)C(=O)[C@H](NC(=O)OC(C)(C)C)c1ccccc1` [Compound 265]: the EC50 was under 1 nM. Take `COC(=O)N[C@H](C(=O)N1CCC[C@H]1c1ncc(-c2ccc(C#Cc3ccc(-c4cnc([C@@H]5CCCN5C(=O)[C@@H](NC(=O)OC)C(C)C)[nH]4)cc3)cc2)[nH]1)C(C)C` [Compound 266]: the EC50 was under 1 nM.

With `COC(=O)N[C@H](C(=O)N(C)[C@@H](C)c1ncc(-c2ccc(C#Cc3ccc(-c4cnc([C@@H]5CCCN5C(=O)[C@@H](NC(=O)OC)C(C)C)[nH]4)cc3)cc2)[nH]1)C(C)C` [Compound 267], the EC50 was under 1 nM.

Regarding `COC(=O)N[C@@H](C(=O)N1CCC[C@H]1c1ncc(-c2ccc(C#Cc3ccc(-c4cnc([C@@H]5CCCN5C(=O)[C@H](NC(=O)N5CC[C@@H](O)C5)c5ccccc5)[nH]4)cc3)cc2)[nH]1)c1ccccc1` [Compound 268], the EC50 is under 1 nM. The value for `COC(=O)N[C@@H](C(=O)N1CCC[C@H]1c1ncc(-c2ccc(C#Cc3ccc(-c4cnc([C@@H]5CCCN5C(=O)[C@H](NC(=O)N5CC[C@H](O)C5)c5ccccc5)[nH]4)cc3)cc2)[nH]1)c1ccccc1` [Compound 269] was under 1 nM. The value for `COC(=O)N[C@@H](C(=O)N1CCC[C@H]1c1ncc(-c2ccc(C#Cc3ccc(-c4cnc([C@@H]5CCCN5C(=O)[C@H](NC(=O)N5CC[C@H](F)C5)c5ccccc5)[nH]4)cc3)cc2)[nH]1)c1ccccc1` [Compound 270] was under 1 nM; that for `COC(=O)N[C@@H](C(=O)N1CCC[C@H]1c1ncc(-c2ccc(C#Cc3ccc(-c4cnc([C@@H]5CCCN5C(=O)[C@H](NC(=O)N5CC[C@@H](OC)C5)c5ccccc5)[nH]4)cc3)cc2)[nH]1)c1ccccc1` [Compound 271] was under 1 nM. The value for `COC(=O)N[C@@H](C(=O)N1CCC[C@H]1c1ncc(-c2ccc(C#Cc3ccc(-c4cnc([C@@H]5CCCN5C(=O)[C@H](NC(=O)N5CC[C@H](OC)C5)c5ccccc5)[nH]4)cc3)cc2)[nH]1)c1ccccc1` [Compound 272] was under 1 nM; that for `COC(=O)N[C@@H](C(=O)N1CCC[C@H]1c1ncc(-c2ccc(C#Cc3ccc(-c4cnc([C@@H]5CCCN5C(=O)[C@H](NC(=O)N5CCC(C)(O)CC5)c5ccccc5)[nH]4)cc3)cc2)[nH]1)c1ccccc1` [Compound 273] was under 1 nM.
